Data set [1] addresses T1, α4β1 integrin (Homo sapiens, UniProt P05556+P13612).
T1 construct: endogenous in cells; host or cells: Ramos cells
As to the kind of experiment: Adhesion of calcein-labeled Ramos cells to CS1 (fibronectin) peptide conjugated ovalbumin. The data set is classed as cell-based. As to conditions: Ramos cell adhesion to CS1 conjugated ovalbumin. The method in brief:
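Plates bearing CS1 fibronectin peptide coupled to ovalbumin (0.5 μg/ml coat, 3% BSA block) received calcein-labelled Ramos cells plus compound (100 μM stated) for 30 min at 37 °C. Buffer was TBS pH 7.5 with 1 mM Mg2+, Ca2+, Mn2+; bound cells quantified by fluorescence after lysis; […].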

Setting [2] is: Table 7, dose required to give 50% inhibition.

The text below walks through data of patent publication US6972296B2, “Carboxylic acid derivatives that inhibit the binding of integrins to their receptors” (Encysive Pharmaceuticals Inc., priority 1999, dated 2005).

T1 sequence (P13612 34-1032): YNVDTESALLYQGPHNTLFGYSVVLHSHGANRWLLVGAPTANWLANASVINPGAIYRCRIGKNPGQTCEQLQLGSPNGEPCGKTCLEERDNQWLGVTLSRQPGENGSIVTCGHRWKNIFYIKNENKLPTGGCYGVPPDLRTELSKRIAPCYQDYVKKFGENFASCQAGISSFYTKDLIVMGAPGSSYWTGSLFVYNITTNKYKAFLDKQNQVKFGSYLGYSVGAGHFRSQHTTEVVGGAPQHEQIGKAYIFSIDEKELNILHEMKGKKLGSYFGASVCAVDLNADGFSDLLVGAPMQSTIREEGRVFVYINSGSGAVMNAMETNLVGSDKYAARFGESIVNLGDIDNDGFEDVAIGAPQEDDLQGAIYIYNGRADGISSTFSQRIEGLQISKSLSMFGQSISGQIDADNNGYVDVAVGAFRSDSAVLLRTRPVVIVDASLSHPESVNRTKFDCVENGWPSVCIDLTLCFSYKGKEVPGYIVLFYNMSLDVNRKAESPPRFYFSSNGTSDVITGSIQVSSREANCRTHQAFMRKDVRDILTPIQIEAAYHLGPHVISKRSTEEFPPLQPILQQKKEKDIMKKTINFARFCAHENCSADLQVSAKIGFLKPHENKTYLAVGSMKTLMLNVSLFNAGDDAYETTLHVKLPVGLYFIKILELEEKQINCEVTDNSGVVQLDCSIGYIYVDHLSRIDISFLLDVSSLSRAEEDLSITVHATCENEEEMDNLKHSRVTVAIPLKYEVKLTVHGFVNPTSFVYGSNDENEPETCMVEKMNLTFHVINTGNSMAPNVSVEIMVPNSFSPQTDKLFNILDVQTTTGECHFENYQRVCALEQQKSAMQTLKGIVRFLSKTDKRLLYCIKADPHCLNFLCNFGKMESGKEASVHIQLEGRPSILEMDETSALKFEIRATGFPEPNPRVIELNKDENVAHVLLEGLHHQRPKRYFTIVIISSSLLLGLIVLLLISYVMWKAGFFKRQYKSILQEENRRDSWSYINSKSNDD
T1 sequence (P05556 21-798): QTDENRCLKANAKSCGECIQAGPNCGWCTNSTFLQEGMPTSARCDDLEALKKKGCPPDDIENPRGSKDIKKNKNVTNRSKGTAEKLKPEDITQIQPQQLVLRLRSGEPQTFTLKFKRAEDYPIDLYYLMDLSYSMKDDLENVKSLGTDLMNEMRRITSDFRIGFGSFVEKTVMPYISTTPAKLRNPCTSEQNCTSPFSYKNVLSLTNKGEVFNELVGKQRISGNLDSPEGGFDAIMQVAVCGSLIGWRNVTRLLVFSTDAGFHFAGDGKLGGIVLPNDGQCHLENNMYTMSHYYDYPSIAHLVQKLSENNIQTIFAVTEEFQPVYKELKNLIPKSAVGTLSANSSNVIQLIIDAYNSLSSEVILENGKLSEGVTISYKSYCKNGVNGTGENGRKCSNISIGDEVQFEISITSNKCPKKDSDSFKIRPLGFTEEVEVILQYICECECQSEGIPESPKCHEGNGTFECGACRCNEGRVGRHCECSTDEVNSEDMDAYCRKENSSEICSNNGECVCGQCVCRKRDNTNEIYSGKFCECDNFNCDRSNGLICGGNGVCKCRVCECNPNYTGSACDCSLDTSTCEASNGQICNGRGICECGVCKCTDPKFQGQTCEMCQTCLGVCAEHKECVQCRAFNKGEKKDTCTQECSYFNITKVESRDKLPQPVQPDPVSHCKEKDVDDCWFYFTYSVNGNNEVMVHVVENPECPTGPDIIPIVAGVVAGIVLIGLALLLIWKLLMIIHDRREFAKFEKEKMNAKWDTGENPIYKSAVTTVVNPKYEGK

For `CCCCN(C(=O)N[C@@H](CC(=O)O)c1ccc2c(c1)OCO2)C1CC(=O)N(Cc2ccccc2)C1=O` (stereo partly drawn) [(3S)-3-(1,3-benzodioxol-5-yl)-3-[({butyl[2,5-dioxo-1-(phenylmethyl)tetrahydro-1H-pyrrol-3-yl]amino}carbonyl)amino]propanoic acid], the melting point (in general, the temperature, or range, at which the solid turns liquid) was in the range of 80 to 85 °C. Moreover, the IC50 – broadly, the concentration that gives 50% inhibition – in data set [1] (Table 4, 30 minutes at 37° C.) was 70000 nM.

The molecule `CCNC(=O)N(CC)C(=O)Nc1ccn(Cc2ccccc2Cl)c(=O)c1NC(=O)N[C@@H](CC(=O)O)c1ccc(C)cc1` [(3S)-3-{[({1-[(2-chlorophenyl)methyl]-4-[({ethyl[(ethylamino)carbonyl]amino}carbonyl)amino]-2-oxo-1,2-dihydro-3-pyridinyl}amino)carbonyl]amino}-3-(4-methylphenyl)propanoic acid] returned a melting point of 128 to 130 °C. In addition, the IC50 in data set [1] (Table 3, 30 minutes at 37° C.) was 2 nM. In the same order, the values of `Cc1ccc([C@H](CC(=O)O)NC(=O)Nc2c(O)ccn(Cc3ccccc3Cl)c2=O)cc1` [(3S)-3-{[({1-[(2-chlorophenyl)methyl]-4-hydroxy-2-oxo-1,2-dihydro-3-pyridinyl}amino)carbonyl]amino}-3-(4-methylphenyl)propanoic acid] are 113 to 115 °C and 10 nM.

Regarding `COc1cccc([C@H](CC(=O)O)NC(=O)Nc2c(O)ccn(Cc3ccccc3Cl)c2=O)c1` [(3S)-3-{[({1-[(2-chlorophenyl)methyl]-4-hydroxy-2-oxo-1,2-dihydro-3-pyridinyl}amino)carbonyl]amino}-3-[3-(methyloxy)phenyl]propanoic acid], the IC50 in data set [1] (Table 3, 30 minutes at 37° C.) was 5 nM. On the same count and under the same terms, then `O=C(O)C[C@H](NC(=O)Nc1c(O)ccn(Cc2ccccc2Cl)c1=O)c1cccc(C(F)(F)F)c1` [(3S)-3-{[({1-[(2-chlorophenyl)methyl]-4-hydroxy-2-oxo-1,2-dihydro-3-pyridinyl}amino)carbonyl]amino}-3-[3-(trifluoromethyl)phenyl]propanoic acid], with 20 nM. Turning to `COc1ccc([C@H](CC(=O)O)NC(=O)Nc2c(O)ccn(Cc3ccccc3Cl)c2=O)cc1C` [(3S)-3-{[({1-[(2-chlorophenyl)methyl]-4-hydroxy-2-oxo-1,2-dihydro-3-pyridinyl}amino)carbonyl]amino}-3-[3-methyl-4-(methyloxy)phenyl]propanoic acid], the IC50 in data set [1] (Table 3, 30 minutes at 37° C.) is 8 nM.

Turning to `COc1ccc([C@H](CC(=O)O)NC(=O)Nc2c(O)ccn(Cc3ccccc3Cl)c2=O)cc1` [(3S)-3-{[({1-[(2-chlorophenyl)methyl]-4-hydroxy-2-oxo-1,2-dihydro-3-pyridinyl}amino)carbonyl]amino}-3-[4-(methyloxy)phenyl]propanoic acid], the 50% inhibitory concentration (IC50) in data set [1] (Table 3, 30 minutes at 37° C.) was 5 nM. As to `O=C(O)C[C@H](NC(=O)Nc1c(O)ccn(Cc2ccccc2Cl)c1=O)c1ccccc1` [(3S)-3-{[({1-[(2-chlorophenyl)methyl]-4-hydroxy-2-oxo-1,2-dihydro-3-pyridinyl}amino)carbonyl]amino}-3-phenylpropanoic acid], the IC50 in data set [1] (Table 3, 30 minutes at 37° C.) was 10 nM.

The molecule `Cc1ccc([C@H](CC(=O)O)NC(=O)Nc2c(O)c3ccccc3n(Cc3ccccc3Cl)c2=O)cc1` [(3S)-3-{[({1-[(2-chlorophenyl)methyl]-4-hydroxy-2-oxo-1,2-dihydro-3-quinolinyl}amino)carbonyl]amino}-3-(4-methylphenyl)propanoic acid] came in with a melting point of 134 to 136 °C. For the same molecule, the IC50 in data set [1] (Table 3, 30 minutes at 37° C.) was 8 nM. On to `CCn1ccc2cc([C@H](CC(=O)O)NC(=O)Nc3c(O)c4c(n(Cc5ccccc5Cl)c3=O)CCC4)ccc21` [(3S)-3-{[({1-[(2-chlorophenyl)methyl]-4-hydroxy-2-oxo-2,5,6,7-tetrahydro-1H-cyclopenta[b]pyridin-3-yl}amino)carbonyl]amino}-3-(1-ethyl-1H-indol-5-yl)propanoic acid], for which the IC50 in data set [1] (setting [2]) is 5 nM. Still for that read-out and setting: next, `CCN(CC)c1cccc([C@H](CC(=O)O)NC(=O)Nc2c(O)c3c(n(Cc4ccccc4Cl)c2=O)CCC3)c1` [(3S)-3-{[({1-[(2-chlorophenyl)methyl]-4-hydroxy-2-oxo-2,5,6,7-tetrahydro-1H-cyclopenta[b]pyridin-3-yl}amino)carbonyl]amino}-3-[3-(diethylamino)phenyl]propanoic acid]: 3 nM; `O=C(O)C[C@H](NC(=O)Nc1c(O)c2c(n(Cc3ccccc3Cl)c1=O)CCC2)c1cccc(OC(F)F)c1` [(3S)-3-{[({1-[(2-chlorophenyl)methyl]-4-hydroxy-2-oxo-2,5,6,7-tetrahydro-1H-cyclopenta[b]pyridin-3-yl}amino)carbonyl]amino}-3-{3-[(difluoromethyl)oxy]phenyl}propanoic acid]: 5 nM; `CS(=O)(=O)Nc1cccc([C@H](CC(=O)O)NC(=O)Nc2c(O)c3c(n(Cc4ccccc4Cl)c2=O)CCC3)c1` [(3S)-3-{[({1-[(2-chlorophenyl)methyl]-4-hydroxy-2-oxo-2,5,6,7-tetrahydro-1H-cyclopenta[b]pyridin-3-yl}amino)carbonyl]amino}-3-{3-[(methylsulfonyl)amino]phenyl}propanoic acid]: 3 nM. Still for that read-out and setting: then `CCN(c1cccc([C@H](CC(=O)O)NC(=O)Nc2c(O)c3c(n(Cc4ccccc4Cl)c2=O)CCC3)c1)S(C)(=O)=O` [(3S)-3-{[({1-[(2-chlorophenyl)methyl]-4-hydroxy-2-oxo-2,5,6,7-tetrahydro-1H-cyclopenta[b]pyridin-3-yl}amino)carbonyl]amino}-3-{3-[ethyl(methylsulfonyl)amino]phenyl}propanoic acid], with 1 nM; and `CN(c1cccc([C@H](CC(=O)O)NC(=O)Nc2c(O)c3c(n(Cc4ccccc4Cl)c2=O)CCC3)c1)S(C)(=O)=O` [(3S)-3-{[({1-[(2-chlorophenyl)methyl]-4-hydroxy-2-oxo-2,5,6,7-tetrahydro-1H-cyclopenta[b]pyridin-3-yl}amino)carbonyl]amino}-3-{3-[methyl(methylsulfonyl)amino]phenyl}propanoic acid], with 1.6 nM; and `Cc1cn(Cc2ccccc2Cl)c(=O)c(NC(=O)N[C@@H](CC(=O)O)c2cccc(C(F)F)c2)c1O` [(3S)-3-{[({1-[(2-chlorophenyl)methyl]-4-hydroxy-5-methyl-2-oxo-1,2-dihydro-3-pyridinyl}amino)carbonyl]amino}-3-[3-(difluoromethyl)phenyl]propanoic acid], with 20 nM. For `Cc1ccc([C@H](CC(=O)O)NC(=O)Nc2c(O)cc(C)n(Cc3ccccc3Cl)c2=O)cc1` [(3S)-3-{[({1-[(2-chlorophenyl)methyl]-4-hydroxy-6-methyl-2-oxo-1,2-dihydro-3-pyridinyl}amino)carbonyl]amino}-3-(4-methylphenyl)propanoic acid], the IC50 in data set [1] (Table 3, 30 minutes at 37° C.) was 15 nM.

Consider `Cc1ccc([C@H](CC(=O)O)NC(=O)Nc2c(C)ccn(Cc3ccccc3Cl)c2=O)cc1C` [(3S)-3-{[({1-[(2-chlorophenyl)methyl]-4-methyl-2-oxo-1,2-dihydro-3-pyridinyl}amino)carbonyl]amino}-3-(3,4-dimethylphenyl)propanoic acid], for which, in data set [1] (Table 3, 30 minutes at 37° C.), the IC50 was 10 nM.

With `Cc1ccc([C@H](CC(=O)O)NC(=O)Nc2c(C)ccn(Cc3ccccc3Cl)c2=O)cc1` [(3S)-3-{[({1-[(2-chlorophenyl)methyl]-4-methyl-2-oxo-1,2-dihydro-3-pyridinyl}amino)carbonyl]amino}-3-(4-methylphenyl)propanoic acid], the IC50 in data set [1] (Table 3, 30 minutes at 37° C.) is 5 nM. The same measure, in the same setting: then `COc1ccc([C@H](CC(=O)O)NC(=O)Nc2c(C)ccn(Cc3ccccc3Cl)c2=O)cc1` [(3S)-3-{[({1-[(2-chlorophenyl)methyl]-4-methyl-2-oxo-1,2-dihydro-3-pyridinyl}amino)carbonyl]amino}-3-[4-(methyloxy)phenyl]propanoic acid], with 3 nM; and `Cc1ccc([C@H](CC(=O)O)NC(=O)Nc2cc(C)cn(Cc3ccccc3Cl)c2=O)cc1` [(3S)-3-{[({1-[(2-chlorophenyl)methyl]-5-methyl-2-oxo-1,2-dihydro-3-pyridinyl}amino)carbonyl]amino}-3-(4-methylphenyl)propanoic acid], with 70 nM; and `Cc1ccc([C@H](CC(=O)O)NC(=O)Nc2c(O)ccn(Cc3ccccc3F)c2=O)cc1` [(3S)-3-{[({1-[(2-fluorophenyl)methyl]-4-hydroxy-2-oxo-1,2-dihydro-3-pyridinyl}amino)carbonyl]amino}-3-(4-methylphenyl)propanoic acid], with 30 nM. Still for that read-out and setting: then `Cc1ccc([C@H](CC(=O)O)NC(=O)Nc2c(N3CCC3)ccn(Cc3ccccc3Cl)c2=O)cc1` [(3S)-3-{[({4-(1-azetanyl)-1-[(2-chlorophenyl)methyl]-2-oxo-1,2-dihydro-3-pyridinyl}amino)carbonyl]amino}-3-(4-methylphenyl)propanoic acid], with 5 nM. Same read-out and setting: then `Cc1ccc([C@H](CC(=O)O)NC(=O)Nc2c(N)ccn(Cc3ccccc3Cl)c2=O)cc1` [(3S)-3-{[({4-amino-1-[(2-chlorophenyl)methyl]-2-oxo-1,2-dihydro-3-pyridinyl}amino)carbonyl]amino}-3-(4-methylphenyl)propanoic acid], with 10 nM; and `Cc1ccc([C@H](CC(=O)O)NC(=O)Nc2c(N)cc(C)n(Cc3ccccc3Cl)c2=O)cc1` [(3S)-3-{[({4-amino-1-[(2-chlorophenyl)methyl]-6-methyl-2-oxo-1,2-dihydro-3-pyridinyl}amino)carbonyl]amino}-3-(4-methylphenyl)propanoic acid], with 10 nM.

The molecule `Cc1ccc([C@H](CC(=O)O)NC(=O)Nc2c(OCc3ccccc3)cc(C)n(Cc3ccccc3)c2=O)cc1` [(3S)-3-{[({6-methyl-2-oxo-1-(phenylmethyl)-4-[(phenylmethyl)oxy]-1,2-dihydro-3-pyridinyl}amino)carbonyl]amino}-3-(4-methylphenyl)propanoic acid] gave a melting point of 124 to 126 °C. Besides, the IC50 in data set [1] (Table 3, 30 minutes at 37° C.) was 5 nM.
